According to patent publication US7033580B2, “Hair-growing agent” (priority 1996, dated 2006):
Read-outs that look alike come from different tables or passages of the source.

How the values were obtained:
protein kinase A (PKA) [1] = target: protein kinase A (PKA) (Bos taurus, UniProt P00517); test: PKA-inhibiting activity measuring method (Kuo et al.); format: biochemical; conditions: crude enzyme partially purified from calf heart
Method: (2) Method for Measuring PKA-inhibiting Activity
To measure the PKA-inhibiting activity of a protein kinase inhibitor, referred to is the Kuo et al's method (see Biochemistry, 64, 1349, 1969).
Precisely, 10 μl of a sample to be tested for determining its activity is added to 250 μl of a solution comprising 5 μmols of Tris-HCl buffer (pH 6.8), 2.5 μmols of magnesium acetate, 100 μg of histone Type IIS (produced by Sigma Co.), 0.25 nmols of c-AMP and 200 μg of a crude enzyme (as partially purified from a calf heart according to the Kuo et al's method), and incubated therein at 30° C. for 3 minutes.
After the completion of the incubation, 1.25 nmols of [g-^32P]ATP (from 5×10^3 to 10×10^3 cpm/nmol) is added to the system, and phosphorylation reaction is carried out at 30° C. for 3 minutes, and thereafter the reaction is terminated by adding 25% trichloroacetic acid thereto.
The resulting reaction mixture is filtrated through a cellulose acetate membrane (pore size: 0.45 μm) (produced by Toyo Filter Co.), and the membrane is washed four times with 5% trichloroacetic acid, and thereafter the radioactivity of the residue remained on the membrane is measured to be a value of the sample.
On the other hand, the same process as described above is repeated without adding the sample to the system, and the radioactivity is obtained to be a control value.

protein kinase C (PKC) [2] = test: PKC-inhibiting activity measuring method (Kikkawa et al.); format: biochemical, rat; conditions: ratio, selectivity PKC over PKA
Method: (1) Method for Measuring PKC-inhibiting Activity
Precisely, 10 μl of a sample to be tested for determining its activity is added to 250 μl of a solution comprising 2.5 μmols of magnesium acetate, 50 μg of histone Type IIIS (produced by Sigma Co.), 20 μg of phosphatidylserine, 0.8 μg of diolein, 25 μmols of calcium chloride, 5 μg of a crude enzyme (as partially purified from a rat brain according to the Kikkawa et al's method) and 5 μmols of Tris-HCl buffer (pH 7.5), and incubated therein at 30° C. for 3 minutes.

protein kinase C (PKC) [3] = target: T1, protein kinase C (PKC); test: as above; format: biochemical, rat; conditions: crude enzyme partially purified from rat brain
T1 construct: PKC-IC50; other: crude enzyme partially purified from rat brain

[4] = system: Mouse hair-follicle cells; test: Hair growth promoting effect in mouse hair-follicle cell culture (Neutral Red); format: cell-based; conditions: for Relative Degree of Cell Growth, vehicled on the degree of cell growth of 100 in Control: 5 days
Method: Mouse hair-follicle cells were cultivated and collected, according to the modified method of the Tanigai et al's method (see Archives of Dermatological Research, 284, 290–296, 1992) while suitably modifying the method.
That is, the skin was peeled from the back of a 4-day age C3H mouse (bought from Nippon Charles River Co.), and processed with an MEM (Minimum Essential Medium, Eagle) containing 500 units/ml Disperse (produced by Godo Shusei Co.) and 5% FCS, at 4° C. for 16 hours.
The epidermis was removed from said skin sample, and the resulting dermis layer was processed with a DMEM (Dulbecco's Modified Eagle Medium) containing 0.25% collagenase N-2 (produced by Nitta Gelatin Co.) and 10% FCS, at 37° C. for 1 hours, to prepare a dermis suspension.
This dermis suspension was filtrated through a 212-micron nylon mesh (produced by Nippon Rikagaku Kikai KK), and the resulting filtrate was centrifuged at 1,000 rpm for 5 minutes to obtain hair-follicle tissue-containing pellets.
The resulting pellets were suspended in a Ca-Mg-free PBS (Dulbecco's Phosphate-Buffered Saline), using a pipette, and then statically left as it was for 15 minutes, whereby the hair-follicle tissue was precipitated.
The thus-obtained hair-follicle tissue was repeatedly processed for a total of three times according to the same process as above comprising the addition of a Ca-Mg-free PBS, the suspension with a pipette, and the precipitation for 15 minutes.
The hair-follicle tissue thus obtained finally was processed with 0.1% EDTA-0.25% trypsin (produced by Gibco Co.) at 37° C. for 5 minutes, to which was then added a DMEM containing 10% FCS. Thus was prepared herein a hair-follicle tissue cell suspension comprising 3×10^5 cells/ml.
This hair-follicle tissue cell suspension was pipetted into a 24-well collagen-coated plate (produced by Iwaki Glass Co.) in an amount of 1 ml/well, and cultivated at 37° C. in 5% CO2 for 24 hours.
The resulting culture was then subjected to medium exchange with an MCDB153 medium (produced by Kyokuto Pharmaceutical Co.) containing 5 mg/liter insulin from bovine (produced by Sigma Co.), 5 μg/liter mouse EGF (produced by Takara Shuzo Co.), 40 mg/liter bovine pituitary extract (produced by Kyokuto Pharmaceutical Co.), 10 mg/liter human transferrin (produced by Sigma Co.), 0.4 mg/liter hydrocortisone (produced by Sigma Co.), 0.63 μg/liter progesterone (produced by Collaborative Research Co.), 14 mg/liter O-phosphoethanolamine (produced by Sigma Co.), 6.1 mg/liter ethanolamine (produced by Sigma Co.), 50 U/ml penicillin (produced by Wako Co.), 50 μg/ml streptomycin (produced by Wako Co.), and an DMSO solution comprising a PKC inhibitor of the invention (this was added in an amount of 1/100 by volume relative to the medium), and then further cultivated at 37° C. in 5% CO2 for 5 days. During the incubation, the medium was exchanged with a fresh one every other day.
As the control, the cell culture was cultivated in the same manner as above, except that only DMSO of 1/100 by volume relative to the medium was added to the medium in place of the PKC inhibitor-containing DMSO solution.
To determine the degree of cell growth, referred to herein was a known method of using Neutral Red (see Journal of Tissue Culture Method, 9, 1, 7–9, 1984). […]
The absorbance of the extract at 540 nm was measured, from which was obtained the degree of growth of the cells.

[5] = system: hair-follicle organ culture; conditions: British Journal of Dermatology, 133, 5, 686–693, 1995; cited from earlier work
protein kinase A (PKA) [6] = conditions: Excerpt from BIO/TECHNOLOGY, 8, 732, 1990; cited from earlier work
protein kinase C (PKC) [7] = conditions: Excerpt from BIO/TECHNOLOGY, 8, 732, 1990, cited from earlier work

Compound | IC50 (protein kinase A (PKA) [1]) | PKA-IC50/PKC-IC50 (protein kinase C (PKC) [2]) | IC50 (protein kinase C (PKC) [3]) | Relative Degree of Cell Growth, vehicled on the degree of cell growth of 100 in Control ([4]; Concentration 10 μM) | IC50 (protein kinase A (PKA) [6]) | effect on growth of mouse hair-follicle cells (in words) [4] | other results
CCCCCCCCCCCCCCCC(=O)OC(CC(=O)O)C[N+](C)(C)C.[Cl-] (racemic) [Palmitoyl-DL-carnitine Hydrochloride, palmitoyl-DL-carnitine hydrochloride] | > 300 µM | >3 | 100 µM | 170 |  |  | 
CC1CNCCN1S(=O)(=O)c1cccc2cnccc12 (stereo not shown) [Composition H-7, 1-(5-Isoquinolinylsulfonyl)-2-methylpiperazine] |  |  |  |  | 13 µM |  | effect on hair growth retardation by 12-O-tetragalloyl-phorbol-13-acetate (in words) [5]: release the hair growth-retarding activity; IC50 (protein kinase C (PKC) [7]): 15 µM; PKA-IC50/PKC-IC50 (protein kinase C (PKC) [7]; ratio): 0.87
calphostin C | > 50 µM | >1000 | 0.05 µM |  |  |  | Relative Degree of Cell Growth, vehicled on the degree of cell growth of 100 in Control ([4]; Concentration 0.1 μM): 160
COC(=O)[C@@]1(O)C[C@H]2O[C@]1(C)n1c3ccccc3c3c4c(c5c6ccccc6n2c5c31)C(=O)NC4 [Composition K252a] |  |  |  |  | 0.02 µM | inhibited the growth of mouse hair-follicle cells | 
polymyxin B sulfate | > 100 µM | >10 | 10 µM | 360 |  |  | 
CN[C@@H]1C[C@H]2O[C@@](C)([C@@H]1OC)n1c3ccccc3c3c4c(c5c6ccccc6n2c5c31)C(=O)NC4 [Staurosporine] |  |  |  |  |  | inhibited the growth of mouse hair-follicle cells | 
